# Measurements published in article PMC9558053, “Development of a novel high-throughput screen for the identification of new inhibitors of protein S-acylation” (The Journal of Biological Chemistry, 2022).
# How the values were obtained:
# purified human zDHHC2 = molecular target: T1, purified human zDHHC2 (Homo sapiens, UniProt Q9UIJ5); assay: In vitro SNAP25 S-acylation by purified zDHHC2, copper-free click chemistry, ELISA; type: biochemical; settings: for inhibition at 3 µM / inhibition at 10 µM: in vitro ELISA, UoS, read-out: zDHHC2-mediated SNAP25 S-acylation inhibition (%); for inhibition at 3 µM: compound 3 μM; for inhibition at 10 µM: compound 10 μM; for IC50 / SNAP25 S-acylation by purified zDHHC2, SDS-PAGE and Western blotting: in vitro; for IC50: ELISA, concentrations 0.3 to 30 μM, read-out: zDHHC2-mediated substrate (SNAP25) S-acylation IC50 (95 CI); for SNAP25 S-acylation by purified zDHHC2, SDS-PAGE and Western blotting: selected samples at 3 or 10 μM
# T1 construct: StrepII (C); made in house; host or cells: Sf9 TriEX insect cells, baculovirus
# T1 sequence (Q9UIJ5 1-367): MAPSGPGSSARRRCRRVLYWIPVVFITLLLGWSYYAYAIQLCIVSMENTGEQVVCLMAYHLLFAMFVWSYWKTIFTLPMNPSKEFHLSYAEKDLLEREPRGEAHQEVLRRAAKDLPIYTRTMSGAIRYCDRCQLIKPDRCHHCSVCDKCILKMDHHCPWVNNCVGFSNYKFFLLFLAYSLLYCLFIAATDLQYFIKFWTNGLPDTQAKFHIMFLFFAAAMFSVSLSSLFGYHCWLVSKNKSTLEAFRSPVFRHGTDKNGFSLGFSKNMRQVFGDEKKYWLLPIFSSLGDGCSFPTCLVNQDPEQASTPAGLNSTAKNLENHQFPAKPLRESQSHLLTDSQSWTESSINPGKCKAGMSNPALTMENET
# [1] = system: endogenous calnexin S-acylation in HEK293T cells; assay: mPEG-click S-acylation of endogenous calnexin in HEK293T cells; type: cell-based, human; settings: 25 and 50 μM, 4 h pretreatment + 4 h labeling
# Source text: Finally, we tested whether TTZ-1 and TTZ-2 were able to block the S-acylation of endogenous proteins in the absence of zDHHC enzyme overexpression. In order to detect the S-acylation of endogenous proteins, we used mPEG-click, a technique that we developed recently ([49]) that is better suited for the click chemistry–based analysis of S-acylation of endogenously expressed proteins. In this assay, cells are labeled with either palmitate (C16:0), or C16:0-azide, lysed, and then subjected to click chemistry with alkyne-mPEG 5K. The addition of mPEG 5K moieties to S-acylated proteins increases their apparent molecular weight, which can be detected directly by immunoblotting. HEK293T cells were pretreated for 4 h with either TTZ-1 or TTZ-2 at 25 and 50 μM and then labeled with fatty acids for another 4 h in the presence of the compounds. We first assessed the S-acylation of endogenous SNAP23 as it is a close relative of SNAP25 (SNAP25 is not expressed in the non-neuronal HEK293T cell line) ([50], [51]). […]
# Figure 10 Activity of TTZ-1 and TTZ-2 against the S-acylation of endogenous proteins in mammalian cells. […] The data were quantified, and the graphs below each set of membranes show mean ± SEM of normalized S-acylation of either endogenous SNAP23 (A) or endogenous calnexin (B). […]
Compound,inhibition at 3 µM (purified human zDHHC2),inhibition at 10 µM (purified human zDHHC2),IC50 (purified human zDHHC2),"SNAP25 S-acylation by purified zDHHC2, SDS-PAGE and Western blotting (purified human zDHHC2)",S-acylation of endogenous calnexin [1]
"O=C(Nc1cccc2c1OC(c1nnn[nH]1)CN2)c1ccc(OCCCCc2ccccc2)cc1 (stereo not shown) [TTZ-2, N-(2-(1H-Tetrazol-5-yl)-3,4-dihydro-2H-benzo[b][1,4]oxazin-8-yl)-4-(4-phenylbutoxy)benzamide]",64%,81%,1.3 µM,confirmed the inhibitory activity,decreased
"CCCCCCCOc1ccc(C(=O)Nc2cccc3c2OC(c2nnn[nH]2)CN3)cc1 (stereo not shown) [TTZ-1, N-(2-(1H-Tetrazol-5-yl)-3,4-dihydro-2H-benzo[b][1,4]oxazin-8-yl)-4-(heptyloxy)benzamide]",30%,77%,4.7 µM,confirmed the inhibitory activity,decreased
